Experimental data from patent US12447165B2, “Intratumoral vein-formation promoting agent” (OSAKA UNIVERSITY, priority 2016, dated 2025).

Columns and labels:
LLC cells [1] = test: Tumor volume, combination of soybean PC and 5-FU, LLC cancer-bearing mice (Example 12); assay type: in vivo, mouse; conditions: soybean PC 3 mg/kg i.v. daily day 7 to 20, 5-FU 20 mg/kg i.p. day 7 and 14, volume to day 21
Experimental: LLC cells (1×10^6 cells in 100 μL of PBS per animal) were subcutaneously injected into C57BL/6NCrSlc mice aged 8 weeks (females, SLC, Inc.) to generate cancer-bearing mice. The mice were assigned to 4 groups: a soybean PC group, a 5-FU group, a soybean PC plus 5-FU group, and a control group (vehicle administration group) (3 animals per group). For the soybean PC group and the soybean PC plus 5-FU group, in the same manner as in Example 1, 3 mg/kg (100 μL) of the soybean PC was administered once daily via the mouse tail vein for […] from day 7 to day 20 post-cancer cell inoculation. For the 5-FU group and the soybean PC plus 5-FU group, 5-FU (Kyowa Hakko Kirin Co., Ltd.) was intraperitoneally administered at a dose of 20 mg/kg on day 7 and day 14 post-cancer cell inoculation. Tumor volume was measured on day 7, day 14 and day 21 post-cancer cell inoculation. The tumor volume was calculated by the following formula: length×width×height×0.5.

LLC cells [2] = test: Various phosphatidylcholines: intratumoral lymphocyte infiltration, LLC cancer-bearing mice (Example 9); assay type: in vivo, mouse; conditions: LLC tumor; PC 3 mg/kg i.v. once daily day 7 to 13; harvested day 14; CD4- and CD8-positive cells
Description: The PCs of Group A were dioctanoyl phosphatidylcholine (Avanti POLAR LIPIDS), dimyristoyl phosphatidylcholine (Nippon Fine Chemical), distearoyl phosphatidylcholine (Nippon Fine Chemical), dioleoyl phosphatidylcholine (Nippon Fine Chemical) and dilinoleoyl phosphatidylcholine (Avanti POLAR LIPIDS). The PCs of Group B were (1-palmitoyl-2-myristoyl) phosphatidylcholine (Avanti POLAR LIPIDS) and (1-palmitoyl-2-oleoyl) phosphatidylcholine (Avanti POLAR LIPIDS).
In the same manner as in Example 1, LLC cells ([…] cells in 100 μL of PBS per animal) were subcutaneously injected into C57BL/6NCrSlc mice aged 8 weeks (females, SLC, Inc.) to generate cancer-bearing mice. For 7 consecutive days from day 7 to day 13 post-cancer cell inoculation, the PCs indicated above were administered at a dose of 3 mg/kg (100 μL) once daily via the mouse tail vein. The vehicle was administered to the mice of the control group. On the day following the final administration (day 14 post-inoculation), the tumors were harvested from the mice. In the same manner as in Example 1, tumor tissue sections were prepared, tumor vasculature was observed, and intratumoral lymphocyte infiltration was examined.

[3] = tested on: human umbilical vein endothelial cells (HUVECs); test: Tubulogenesis of cultured HUVECs on Matrigel with VEGF (Examples 13 and 14); assay type: cell-based; conditions: HUVEC on Matrigel, Example 14
Experimental: Each well of a 48-well plate was coated with 200 μL of Matrigel (BD biosciences), and human umbilical vein endothelial cells (HUVECs; Kurabo Industries Ltd.) were seeded at 5×10^4 cells/200 μL/well and cultured. For the culture, HuMedia-EB2 medium (Kurabo Industries, Ltd.) supplemented with 1% FCS was used. VEGF (recombinant human VEGF165, Peprotech) was added at a final concentration of 10 ng/mL to the culture medium to induce tubulogenesis of the vascular endothelial cells. Soybean PC was also added at 10 μM concomitantly with VEGF. At 12 to 16 hours after the start of the culture, the cells were photographed under a microscope. In addition, Hoechst (Boehringer Ingelheim) was added to stain cell nuclei, and newly formed blood vessels were observed. The wells not containing the soybean PC were used as a control.
The same experiment as in Example 12 was performed using soybean PC and other 8 types of PCs. The PCs were classified as Group A or B as with Example 8. The PCs used were as follows (see Table 2).

intratumoral vessels = test: Phosphatidylcholine administration to lysophosphatidic acid receptor 4-deficient mice; assay type: in vivo, mouse
Description: Lysophosphatidic acid is enzymatically synthesized from lysophosphatidylcholine, which is produced by enzymatic decomposition of phosphatidylcholine. Considering this, there was a possibility that the newly discovered effects of phosphatidylcholine might be underlain by the mechanism that the administered phosphatidylcholine undergoes in vivo decomposition into lysophosphatidic acid, which activates a lysophosphatidic acid receptor and thereby produces the effects. However, the structural improvement of intratumoral vessels and the promotion of immune cell infiltration after phosphatidylcholine administration were not observed after lysophosphatidyicholine administration (see Reference Example 1). […] Therefore, the effects of phosphatidylcholine were proven not to be mediated by a lysophosphatidic acid receptor.

Row | Compound | tumor volume (tumor growth) as compared with the control group (LLC cells [1]) | Lymphocyte Infiltration (LLC cells [2]) | Vein-like morphological change [3] | immune cell infiltration (intratumoral vessels) | structure of intratumoral vessels (intratumoral vessels)
1 | O=c1[nH]cc(F)c(=O)[nH]1 [5-FU] | tumor growth inhibition | – | – | – | –
2 | CCCCCCCCCCCCCCCC(=O)OC[C@H](COP(=O)([O-])OCC[N+](C)(C)C)OC(=O)CCCCCCCCCCCCC [(1-palmitoyl-2-myristoyl) phosphatidylcholine] | – | yes | yes | – | –
3 | CCCCCCCC/C=C\CCCCCCCC(=O)O[C@H](COC(=O)CCCCCCCCCCCCCCC)COP(=O)([O-])OCC[N+](C)(C)C [(1-palmitoyl-2-oleoyl) phosphatidylcholine] | – | yes | yes | – | –
4 | CC/C=C\C/C=C\C/C=C\C/C=C\C/C=C\C/C=C\CCC(=O)OC[C@H](COP(=O)([O-])OCC[N+](C)(C)C)OC(=O)CC/C=C\C/C=C\C/C=C\C/C=C\C/C=C\C/C=C\CC [Didocosahexaenoyl phosphatidylcholine, didocosahexaenoyl phosphatidylcholine] | – | – | yes | – | –
5 | CCCCC/C=C\C/C=C\CCCCCCCC(=O)OC[C@H](COP(=O)([O-])OCC[N+](C)(C)C)OC(=O)CCCCCCC/C=C\C/C=C\CCCCC [Dilinoleoyl phosphatidylcholine, dilinoleoyl phosphatidylcholine] | – | yes | yes | – | –
6 | CCCCCCCCCCCCCC(=O)OC[C@H](COP(=O)([O-])OCC[N+](C)(C)C)OC(=O)CCCCCCCCCCCCC [Dimyristoyl phosphatidylcholine, dimyristoyl phosphatidylcholine] | – | yes | yes | – | –
7 | CCCCCCCC(=O)OCC(COP(=O)([O-])OCC[N+](C)(C)C)OC(=O)CCCCCCC (stereo not drawn) [Dioctanoyl phosphatidylcholine, dioctanoyl phosphatidylcholine] | – | yes | yes | – | –
8 | CCCCCCCC/C=C\CCCCCCCC(=O)OC[C@H](COP(=O)([O-])OCC[N+](C)(C)C)OC(=O)CCCCCCC/C=C\CCCCCCCC [Dioleoyl phosphatidylcholine, dioleoyl phosphatidylcholine] | – | yes | yes | – | –
9 | CCCCCCCCCCCCCCCCCC(=O)OC[C@H](COP(=O)([O-])OCC[N+](C)(C)C)OC(=O)CCCCCCCCCCCCCCCCC [Distearoyl phosphatidylcholine, distearoyl phosphatidylcholine] | – | yes | yes | – | –
10 | phosphatidylcholine | – | – | – | promoted immune cell infiltration | improved the structure of intratumoral vessels
